From PMC7180728, “Novel Anthraquinone Compounds Inhibit Colon Cancer Cell Proliferation via the Reactive Oxygen Species/JNK Pathway” (Molecules, 2020) come the findings set out here.

Values after ≈ are worked out from the molar mass of the structure shown.

One assay has as its system HL-7702. The assay can be described thus: MTT cell proliferation assay, normal liver cells HL-7702. It is filed as cell-based. The note with it: L02, HL-7702 normal human hepatocyte, 48 h. The protocol: (§1) The effects of the synthesized amide anthraquinone derivatives on the proliferative activity of eight human cancerous cell lines (EC9706, MCF-7, SGC-7901, HepG2, QBC939, HeLa, HCT116 and SW480) in addition to two normal human cell lines (colorectal FHC and liver HL7702) were evaluated using the standard MTT assay.
(§2) The human esophageal cancer cell line EC9706 was obtained from Cancer Hospital and Institute by Prof. Ming Rong Wang, Chinese Academy Medical of Sciences. The human colorectal carcinoma cell lines HCT116 and SW480, hepatoma cell line HepG2, cervical carcinoma cell line HeLa, breast cancer cell line MCF-7, gastric cancer cell line SGC-7901, cholangiocarcinoma cell line QBC939, normal fetal colon cell line FHC and liver cell line HL-7702 were obtained from the Cell Bank of the Shanghai Chinese Academy of Sciences. All cells were cultured in RPMI 1640 medium containing 100 U/mL penicillin and streptomycin and 10% fetal bovine serum and maintained at 37°C under a 5% CO2 atmosphere.
(§3) We analyzed the inhibitory effects of eight anthraquinone-amino acid derivatives on the proliferation of eight tumor cell lines and two normal cell lines in vitro using MTT assays. Cells were added to a 96-well plate with (5,000 cells per well in 100 µL RPMI-1640 medium). Cells were treated with different concentrations (10–100 μg/mL) of 8a–8h for 48 h and then incubated with 20 μL MTT (5 mg/mL) for another 4 h at 37°C. DMSO (150 μL) was then added to each well to dissolve the formazan crystals. The absorbance of each well was read at 490 nm on a microtiter plate ELISA reader. The mean values were obtained from a minimum of three parallel experiments. IC50 values were calculated.

The test system of assay [1] is mitochondrial membrane potential of HCT116 cells. The assay is described as follows: Mitochondrial membrane potential, JC-1 flow cytometry. It is filed as cell-based, human. The note with it: 24 h. The method, then: (§4) Decreased mitochondrial membrane potential is a hallmark of early cell apoptosis, and a decrease in mitochondrial membrane potential leads to the release of certain mitochondrial proteins, such as cytochrome c, which mediate apoptosis. Therefore, we examined changes in mitochondrial membrane potential by flow cytometry. HCT116 cells were treated with 8a (10 or 20 μg/mL) for 24 h and then stained with 2 μg/mL JC-1 for 30 min prior to flow cytometric analysis. Green /orange fluorescence ratio of JC-1, compare with control, is 200% and 494.4%, respectively (Figure 8E,F). […] During apoptosis, mitochondrial cytochrome C is released into the cytoplasm and triggers the activation cascade of caspase. HCT116 cells were collected after 8a treatment, cytoplasmic protein and mitochondrial protein were extracted. The levels of cytochrome c in the cytoplasm and mitochondria were detected by Western blotting. After treatment of HCT116 cells with 8a (10 or 20 μg/mL) for 24 h, cytoplasmic levels of cytochrome c increased, while the levels in the mitochondria decreased.
The 1×10^4 cells were treated with different concentrations of 8a for 24 h. Cells were then incubated with 500 μL JC-1 ([…]) for 30 min at 37 °C in the dark. The level of mitochondrial membrane potential depolarization was measured by flow cytometry. Data were analyzed using the Cell Quest program (BD, New York, The United States).

Another assay relates to SGC-7901. The assay is described as follows: MTT cell proliferation assay, SGC-7901. The assay is classed as cell-based, human. The following applies: Homo sapiens, SGC-7901, 48 h, SGC-7901 gastric cancer, read-out: IC50. The protocol:
as §1, §2, §3

The subject of another assay is EC9708. The assay can be described thus: MTT cell proliferation assay, EC9706 (Table 1: EC9708). The assay is classed as cell-based. The note with it: Homo sapiens, EC9708 esophageal cancer, 48 h. The protocol:
as §1, §2, §3

The next assay deals with HepG2. The assay can be described thus: MTT cell proliferation assay, HepG2. It is filed as cell-based. The following applies: Homo sapiens, HepG2 liver cancer, 48 h. The method, then: as §1, §2, §3
The test system of a further assay is cytochrome c. The assay is described as follows: Western blot, cytochrome c in cytoplasm and mitochondria. The assay is classed as cell-based, human. The note with it: 10 or 20 μg/mL, 24 h, HCT116, western blot. The method, then: as §4
The expression of signaling pathway-related proteins was detected by western blot analysis. Cell (1 × 10^6) were plated in 90-mm dishes and treated with 8a for 24 h. The cells were treated with NAC in the same way as in step 4.7. […] Protein concentrations in the supernatant were determined by using a Minbio BCA protein assay kit. […]

In the next assay the test system is HCT116 cells. The assay is described as follows: Annexin V/PI apoptosis assay by flow cytometry. It is filed as cell-based, human. The following applies: 24 h, control 0.06%. The method, then:
Natural anthraquinones, such as rubiadin, physcion, emodin and soranjidiol, have been reported to induce apoptosis in tumor cells. Therefore, after detecting the effect of 8a on tumor cell proliferation, we investigated correlation between the anticancer activity of compound 8a and apoptosis. The effects of compound 8a treatment on HCT116 cell apoptosis were detected by flow cytometry following Annexin V/PI staining.
HCT116 cells were added to a 6-well plate (5 × 10^6/well). After attachment, the cells were treated with 8a for 24 h. Then, the cells were collected and centrifuged (10,000 g × 5 min). Cells were washed once with 1 mL of PBS. Cells were suspended in 500 μL binding buffer (containing 5 μL Annexin V-FITC and 1 μL propidium iodide [PI]) and incubated for 30 min in the dark. Apoptosis cells were detected by flow cytometry (FACSCalibur, BD, The United States).

With `CC(C)CC(NC(=O)c1ccc2c(c1[N+](=O)[O-])C(=O)c1ccccc1C2=O)C(=O)O` (stereo not drawn) [Compound 8a, N-[(9,10-dihydro-1-nitro-9,10-dioxo-2-anthracenyl)carbonyl-leucine]], the IC50 in the assay on HL-7702 was above 1000 µg/mL; in the assay on SGC-7901 it was 55.82 ± 0.16 µg/mL (≈ 136 µM); in the assay on EC9708 it was 44 ± 0.61 µg/mL (≈ 107 µM); with HepG2 it was 44.65 ± 0.03 µg/mL (≈ 109 µM). Also, the “Green/orange fluorescence ratio of JC-1, compared with control” value in assay [1] (10 μg/mL) came out at 200%; in assay [1] (20 μg/mL), 494.4%. In addition, the “mitochondrial membrane potential (in words)” value in assay [1] (10 or 20 μg/mL) was “decreased the mitochondrial membrane potential in a dose-dependent manner”. In addition, the “cytochrome c levels in the mitochondria” value in the assay with cytochrome c is given as “decreased”. For the same compound, the “cytoplasmic levels of cytochrome c” value in the assay with cytochrome c is given as “increased”. Besides, the values for the rate of apoptosis with HCT116 cells (10 μg/mL), with HCT116 cells (20 μg/mL) and in the assay with HCT116 cells (40 μg/mL) were 11.24%, 18.97% and 26.94%, respectively.
